Marks after values point to notes of the source that are not given here.
Columns and labels:
[1] = oxygen radical absorbance capacity (ORAC) experiment; conditions: relative to Trolox; AAPH, fluorescein
Experimental: The antioxidant activity of the compounds was evaluated by using the oxygen radical absorbance capacity (ORAC) experiment. The detailed experimental procedure is as follows. 0.248 g of AAPH (2,2′-azobisisobutylamidine dihydrochloride) was added to a 50 mL phosphate buffer system to formulate a 18.3 mM AAPH stock solution. 20 μL of phosphate buffer, 20 μL solution of sample to be tested or standard substance Trolox (concentration of 6.25 μM) and 20 μL of fluorescent substance of disodium fluorescein (FL, concentration of 630 nM) were added to the wells of a 96-well plate in order. Then, 140 μL of AAPH (concentration of 18.3 mM) was quickly added to the wells of the 96-well plate, which was immediately placed in a GENios […] microplate reader manufactured by Tecan, Switzerland, the excitation wavelength was set as 485 nm and the emission wavelength was set as 527 nm. The fluorescence intensity was measured every 2 minutes and recorded for a total of 100 min.
The antioxidant capacity of the active substance is calculated as follows: Relative ORAC value=(AUCsample−AUCblank)/(AUCtrolox−AUCblank). Wherein, AUCsample refers to the integral area under the fluorescence decay curve of the test sample, AUCtrolox refers to the integral area under the fluorescence decay curve of the standard substance Trolox, and AUCblank refers to the integral area under the fluorescence decay curve when the test sample or the standard substance Trolox is not added.

[2] = test system: Senile dementia fruit fly (Aβ42; P35*H29.3); test: learning and memory (olfactory short-term memory, T-Maze) of Senile dementia fruit fly; format: in vivo; conditions: performance index, 100 μM in feed, n = 6
From the text: W^1118 (isoCJ1), as a background fruit fly of control group in the experiment, was abbreviated as “2U”. The fruit flies that successfully introduced with the pathogenic Aβ42 protein were (UAS-Aβ42; abbreviated as “H29.3”). This strain of fruit flies was hybridized with the fruit fly expressing the Gal4 promoter in whole brain, and the fruit fly strain carrying elav-GAL4^c155 (P35) and Aβ42 was obtained.
Three groups of drug-free control of healthy fruit fly, drug-free control of disease fruit fly, and dose disease fruit fly were set in the experiment.
All parents of tested fruit flies were housed and propagated at a constant temperature of 24° C. and a humidity of 42% RH (Relative humidity). On the first day after the emergence of the fruit flies, the fruit flies of control group and disease group, as well as the fruit flies to be administered were anesthetized with carbon dioxide, and then the fruit flies of the correct characters were selected into the glass tube containing food. During the dosing period, all tested fruit flies were kept in an incubator with a constant temperature of 28° C. and a constant humidity of 42% to ensure the drug taking efficiency of the fruit flies. Each day the fruit flies were administered for 4 hours, and the drug was administered from the second day after the fruit flies were selected until the 8th day.
The drugs administered were prepared on the second day after the fruit fly selection, and were administered to the fruit flies on the day of preparation. The drugs were dissolved by 100% DMSO to a concentration of 10 mM. When preparing the working solution, the 10 mM stock solution was diluted to 100 μM with 4% sucrose. In addition, the fruit flies of control group were fed sucrose water containing 1% DMSO. For each Performance Index, two tubes of fruit fly groups are required, each tube containing about 100 fruit flies.
Experiments were conducted in a light proof behavior room with constant temperature of 25° C., constant humidity of 70%. The method can be found in references^[1-3].
1) During the training stage, about 100 flies were loaded into a training tube provided with a copper mesh cross electrode. Two kinds of odors of octanol (OCT) and methylcyclohexanol (MCH) were successively introduced for each 60 s with an intervals for 45 s of fresh air. 60 V pulsed electrical shock stimulation (US, pulse duration 1.5 s, interval 3.5 s) was applied to the fruit flies while introducing the 1st odor. No electrical shock was applied when the second odor (CS−) was introduced. Thereby one training cycle was completed.
2) In the transient memory (learning) ability test, the fruit flies that completed one training cycle were immediately transferred to the selection point of T-Maze, while CS+ and CS− were introduced from the opposite two directions. After two minutes of selection, the fruit flies on both sides were collected separately and counted after anesthesia or sacrifice. The calculation formula for the performance index (PI) is as follows: PI=[(CS−)−(CS+)]/[(CS−)+(CS+)]×100.
Using OCT and MCH as CS+ for training and testing respectively, the average of the two PIs obtained was used as PI for one experiment. […] When performing the activity test, the short-term memory deficit tests for the olfactory sensation of the non-administered healthy flies with the same genetic background (2U*H29.3), non-administered Senile dementia disease flies (P35*H29.3), and test drug administered Senile dementia disease flies were also conducted, and their total learning and memory performance indexes (PIs) was calculated respectively. The learning and memory performance index of the test drug administered Senile dementia disease flies was compared with the performance index of the non-administered healthy flies with the same genetic background (2U*H29.3), and the performance index of the non-administered Senile dementia disease flies (P35*H29.3), to evaluate effect of the test drugs against Senile dementia. […]

[3] = test system: respiratory syncytial virus (RSV); test: microbe, parasite or virus in culture; format: cell-based; conditions: for SI = CC50/IC50: RSV, HEp-2 cells; for IC50: RSV in HEp-2 cells, CPE, 60-72 hours
Experimental: (§1) 1) HEp-2 cells were seeded in 96-well cell culture plates at 100 μL/well and the cell density was 2.5×10^5/mL. The cells were cultured in a 37° C., 5% CO2 incubator and grown into a cell single layer over about 20 h.
2) The culture fluid in the 96-well plate was discarded and the sample to be tested was half diluted by using maintenance solution with the starting concentration of the monomeric compound being 50 μM, and 50 μL of sample and 50 μL of 100×TCID50 of virus dilution being added into each well. The positive control drug Ribavirin group, virus control group and cell control group were set and placed in a 37° C., 5% CO2 incubator for culture.
3) The culture was continued for 60-72 hours, and the viral lesions in each group were recorded when the lesions were completely developed in the virus control group.
4) The virus-induced cytopathic effect was recorded as follows: no cellular lesion was recorded as “−”, 0 to 25% cellular lesions was recorded as “+”, 25% to 50% cellular lesion was recorded as “++”, 50%˜75% of cellular lesion was recorded as “+++”, and 75% to 100% of cellular lesion was recorded as “++++”. The sample concentration corresponding to the “++” lesion level is the half inhibitory concentration IC50 of the sample against the virus.
5) Three replicates were performed independently for each experiment.

HEp-2 cells = test: Cytotoxicity assay (MTT); format: cell-based; conditions: 72 hours
Experimental: as §1
(§2) 2) The culture fluid in the 96-well plate was discarded and the sample to be tested was half diluted into different concentrations by using maintenance solution. For each dilution, 3 replicate wells were set at 100 μL/well, and cell control wells were also set at the same time. Then they were placed in the incubator to continue the culture.
(§3) 3) The cytopathic effect caused by sample toxicity was observed every day. After 72 hours, the culture solution was discarded, and according to the MTT method, 30 μL of 5 mg/mL MTT solution was added into each well. They were placed in the incubator to continue the incubation for 4 h in dark.

Cytotoxicity assay (MTT) = format: cell-based; conditions: human, HEp-2 cells
Experimental: as §1, §2, §3

O=C(O[C@@H]1Cc2c(O)cc(O)cc2O[C@@H]1c1cc(O)c(O)c(O)c1)c1cc(O)c(O)c(O)c1 [EGCG, epigallocatechin gallate, reference compound]
ORAC value [1]: 1.48 ± 0.02 μmol TE/μmol

CC12CC3CC(C)(C1)CC(N)(C3)C2 [Memantine, reference compound]
PI (100 μM) ([2]; experiment a): 43.1 ± 0.9***
PI (100 μM) ([2]; experiment b): 42.7 ± 0.9***
PI (100 μM) ([2]; experiment c): 44.2 ± 2.1***

NC(=O)c1ncn([C@@H]2O[C@H](CO)[C@@H](O)[C@H]2O)n1 [Ribavirin, reference compound]
SI = CC50/IC50 [3]: 15
IC50 ([3]; human respiratory syncytial virus): 2.5 µM
MNCC (HEp-2 cells): 15.32 ± 4.31 µM
CC50 at 72 h (Cytotoxicity assay (MTT)): 37.9 ± 3.82 µM

O=C(/C=C/c1ccc(O)c(O[C@@H]2O[C@H](CO)[C@@H](O)[C@H](O)[C@H]2O)c1)NCCCNCCCCNC(=O)CCc1ccc(O)c(O)c1 [formula III]
IC50 [3]: 25 µM
SI = CC50/IC50 [3]: >4
PI (100 μM) ([2]; experiment a): 42.9 ± 1.6***
ORAC value [1]: 1.87 ± 0.04 μmol TE/μmol
CC50 (HEp-2 cells): > 100 µM
MNCC (HEp-2 cells): >100 µM

O=C(/C=C/c1ccc(O)c(O)c1)NCCCNCCCCNC(=O)CCc1ccc(O[C@@H]2O[C@H](CO)[C@@H](O)[C@H](O)[C@H]2O)c(O)c1 [formula II]
IC50 [3]: 25 µM
SI = CC50/IC50 [3]: >4
PI (100 μM) ([2]; experiment a): 35.5 ± 3.8*
ORAC value [1]: 2.04 ± 0.04 μmol TE/μmol
CC50 (HEp-2 cells): > 100 µM
MNCC (HEp-2 cells): >100 µM

O=C(/C=C/c1ccc(O)c(O)c1)NCCCNCCCCNC(=O)CCc1ccc(O)c(O[C@@H]2O[C@H](CO)[C@@H](O)[C@H](O)[C@H]2O)c1 [formula IV]
IC50 [3]: 25 µM
SI = CC50/IC50 [3]: >4
PI (100 μM) ([2]; experiment a): 42.2 ± 2.1***
ORAC value [1]: 1.73 ± 0.04 μmol TE/μmol
CC50 (HEp-2 cells): > 100 µM
MNCC (HEp-2 cells): >100 µM

O=C(/C=C\c1ccc(O)c(O[C@@H]2O[C@H](CO)[C@@H](O)[C@H](O)[C@H]2O)c1)NCCCNCCCCNC(=O)CCc1ccc(O[C@@H]2O[C@H](CO)[C@@H](O)[C@H](O)[C@H]2O)c(O)c1 [formula VIII]
SI = CC50/IC50 [3]: >2
PI (100 μM) ([2]; experiment b): 32.2 ± 2.3*
ORAC value [1]: 3.07 ± 0.02 μmol TE/μmol
CC50 (HEp-2 cells): > 100 µM
MNCC (HEp-2 cells): >100 µM

O=C(/C=C/c1ccc(O)c(O[C@@H]2O[C@H](CO)[C@@H](O)[C@H](O)[C@H]2O)c1)NCCCNCCCCNC(=O)CCc1ccc(O)c(O[C@@H]2O[C@H](CO)[C@@H](O)[C@H](O)[C@H]2O)c1 [formula VII]
SI = CC50/IC50 [3]: >2
PI (100 μM) ([2]; experiment b): 44.6 ± 2.5***
ORAC value [1]: 1.02 ± 0.02 μmol TE/μmol
CC50 (HEp-2 cells): > 100 µM
MNCC (HEp-2 cells): >100 µM

O=C(/C=C/c1ccc(O[C@@H]2O[C@H](CO)[C@@H](O)[C@H](O)[C@H]2O)c(O)c1)NCCCNCCCCNC(=O)CCc1ccc(O)c(O)c1 [formula V]
IC50 [3]: 25 µM
SI = CC50/IC50 [3]: >4
PI (100 μM) ([2]; experiment a): 35.0 ± 1.3*
ORAC value [1]: 2.96 ± 0.03 μmol TE/μmol
CC50 (HEp-2 cells): > 100 µM
MNCC (HEp-2 cells): >100 µM

O=C(CCc1ccc(O[C@@H]2O[C@H](CO)[C@@H](O)[C@H](O)[C@H]2O)c(O)c1)NCCCCNCCCNC(=O)CCc1ccc(O[C@@H]2O[C@H](CO)[C@@H](O)[C@H](O)[C@H]2O)c(O)c1 [formula XIII]
IC50 [3]: 25 µM
SI = CC50/IC50 [3]: >4
PI (100 μM) ([2]; experiment b): 42.5 ± 3.0***
ORAC value [1]: 2.06 ± 0.04 μmol TE/μmol
CC50 (HEp-2 cells): > 100 µM
MNCC (HEp-2 cells): >100 µM

O=C(CCc1ccc(O)c(O[C@@H]2O[C@H](CO)[C@@H](O)[C@H](O)[C@H]2O)c1)NCCCCNCCCNC(=O)CCc1ccc(O)c(O[C@@H]2O[C@H](CO)[C@@H](O)[C@H](O)[C@H]2O)c1 [formula XII]
SI = CC50/IC50 [3]: >2
PI (100 μM) ([2]; experiment b): 33.5 ± 3.0**
ORAC value [1]: 1.23 ± 0.04 μmol TE/μmol
CC50 (HEp-2 cells): > 100 µM
MNCC (HEp-2 cells): >100 µM

O=C(CCc1ccc(O)c(O[C@@H]2O[C@H](CO)[C@@H](O)[C@H](O)[C@H]2O)c1)NCCCCNCCCNC(=O)CCc1ccc(O[C@@H]2O[C@H](CO)[C@@H](O)[C@H](O)[C@H]2O)c(O)c1 [formula XIV]
SI = CC50/IC50 [3]: >2
PI (100 μM) ([2]; experiment c): 44.6 ± 1.2***
ORAC value [1]: 1.81 ± 0.05 μmol TE/μmol
CC50 (HEp-2 cells): > 100 µM
MNCC (HEp-2 cells): >100 µM

O=C(CCc1ccc(O)c(O)c1)NCCCCNCCCNC(=O)CCc1ccc(O)c(O[C@@H]2O[C@H](CO)[C@@H](O)[C@H](O)[C@H]2O)c1 [formula XI]
IC50 [3]: 25 µM
SI = CC50/IC50 [3]: >4
PI (100 μM) ([2]; experiment b): 37.2 ± 2.9***
ORAC value [1]: 2.07 ± 0.03 μmol TE/μmol
CC50 (HEp-2 cells): > 100 µM
MNCC (HEp-2 cells): >100 µM

From patent US11208427B2, “Dicaffeoyl spermidine derivative glycosides and use thereof” (Jinan University, priority 2016, dated 2021)
